In ChEMBL document CHEMBL1140352, “Synthesis and structure-activity relationship of novel 6-aryl-1,4-dihydrobenzo[d][1,3]oxazine-2-thiones as progesterone receptor modulators leading to the potent and selective nonsteroidal progesterone receptor agonist tanaproget” (J Med Chem, 2005):

Tests used:
[1] = system: T47D; test: Effective concentration against alkaline phosphatase activity in human T47D breast carcinoma cell line; assay type: functional, cell-based
[2] = molecular target: T1, Progesterone receptor (Homo sapiens, UniProt P06401); test: Inhibition of human progesterone receptor
T1 sequence (P06401 whole entry): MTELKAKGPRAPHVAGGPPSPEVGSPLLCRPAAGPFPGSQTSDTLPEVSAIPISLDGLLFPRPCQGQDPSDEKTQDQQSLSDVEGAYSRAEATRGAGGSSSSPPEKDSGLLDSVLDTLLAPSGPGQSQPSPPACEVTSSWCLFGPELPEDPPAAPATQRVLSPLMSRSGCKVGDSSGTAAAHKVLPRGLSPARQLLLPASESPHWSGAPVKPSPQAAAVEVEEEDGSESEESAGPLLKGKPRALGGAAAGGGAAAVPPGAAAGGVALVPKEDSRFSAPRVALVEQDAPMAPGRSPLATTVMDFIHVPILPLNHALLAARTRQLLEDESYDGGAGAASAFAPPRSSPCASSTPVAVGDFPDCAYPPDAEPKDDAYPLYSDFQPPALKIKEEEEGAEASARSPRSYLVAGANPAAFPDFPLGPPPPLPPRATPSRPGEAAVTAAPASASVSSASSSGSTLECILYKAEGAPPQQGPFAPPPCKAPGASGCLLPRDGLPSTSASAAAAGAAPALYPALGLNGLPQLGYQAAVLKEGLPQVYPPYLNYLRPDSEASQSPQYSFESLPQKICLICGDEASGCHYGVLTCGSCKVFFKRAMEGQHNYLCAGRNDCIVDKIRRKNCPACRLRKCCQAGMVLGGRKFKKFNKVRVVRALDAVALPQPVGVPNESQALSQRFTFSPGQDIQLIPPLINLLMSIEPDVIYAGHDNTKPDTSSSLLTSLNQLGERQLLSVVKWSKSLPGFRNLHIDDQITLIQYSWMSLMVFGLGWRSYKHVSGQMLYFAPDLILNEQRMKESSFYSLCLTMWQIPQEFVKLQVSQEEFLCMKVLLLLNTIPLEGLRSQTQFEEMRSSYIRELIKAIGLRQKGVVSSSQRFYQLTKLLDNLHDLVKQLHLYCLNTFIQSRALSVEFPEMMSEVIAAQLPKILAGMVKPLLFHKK

SMILES | EC50 [1] [nM] | IC50 [2] [nM]
CC1Nc2ccc(-c3ccc(F)c(C#N)c3)cc2C(C)(C)O1 (configuration not stated) | 23 | 
CCC1(CC)OC(S)=Nc2ccc(-c3ccc(C#N)n3C)cc21 | 0.1 | 
CCC1(C)OC(S)=Nc2ccc(-c3ccc(C#N)n3C)cc21 (configuration not stated) | 0.1 | 
Cn1c(C#N)ccc1-c1ccc2c(c1)C1(CCC1)OC(S)=N2 | 0.5 | 
Cn1c(C#N)ccc1-c1ccc2c(c1)C(C)(c1cccs1)OC(S)=N2 (configuration not stated) | 0.35 | 
CC1(C)OC(S)=Nc2ccc(-c3coc(C#N)c3)cc21 | 1.2 | 
CC1(C)OC(S)=Nc2ccc(-c3csc(C#N)c3)cc21 | 0.4 | 
CC(C)n1c(=O)[nH]c2ccc(-c3cccc(Cl)c3)cc21 |  | 73
CN1C(=S)OC(C)(C)c2cc(-c3ccc(C#N)[nH]3)ccc21 | 21.1 | 
CC1(C)OC(=S)Nc2ccc(-c3ccc(C#N)[nH]3)cc21 | 0.15 | 
Cn1c(C#N)ccc1-c1ccc2c(c1)C(C)(C)OC(=O)N2 | 1.1 | 
Cn1c(C#N)ccc1-c1ccc2c(c1)C(C)(C)OC(=S)N2 [TANAPROGET] | 0.15 | 
